Assay results published in publication PMC9030254, “Target Hopping from Protein Kinases to PXR: Identification of Small-Molecule Protein Kinase Inhibitors as Selective Modulators of Pregnane X Receptor from TüKIC Library” (Cells, 2022).

Columns and labels:
Assay in all cases: Kinase profiling
Format in all cases: biochemical
FGR = molecular target: T1, FGR (Homo sapiens, UniProt P09769)
T1 construct: purchased ProQinase (Freiburg, Germany)
Description: (§1) The analysis was performed by ProQinase (Freiburg, Germany).

EEF2K = molecular target: T2, EEF2K (Homo sapiens, UniProt O00418)
T2 construct: purchased ProQinase (Freiburg, Germany)
T2 sequence (O00418 1-725): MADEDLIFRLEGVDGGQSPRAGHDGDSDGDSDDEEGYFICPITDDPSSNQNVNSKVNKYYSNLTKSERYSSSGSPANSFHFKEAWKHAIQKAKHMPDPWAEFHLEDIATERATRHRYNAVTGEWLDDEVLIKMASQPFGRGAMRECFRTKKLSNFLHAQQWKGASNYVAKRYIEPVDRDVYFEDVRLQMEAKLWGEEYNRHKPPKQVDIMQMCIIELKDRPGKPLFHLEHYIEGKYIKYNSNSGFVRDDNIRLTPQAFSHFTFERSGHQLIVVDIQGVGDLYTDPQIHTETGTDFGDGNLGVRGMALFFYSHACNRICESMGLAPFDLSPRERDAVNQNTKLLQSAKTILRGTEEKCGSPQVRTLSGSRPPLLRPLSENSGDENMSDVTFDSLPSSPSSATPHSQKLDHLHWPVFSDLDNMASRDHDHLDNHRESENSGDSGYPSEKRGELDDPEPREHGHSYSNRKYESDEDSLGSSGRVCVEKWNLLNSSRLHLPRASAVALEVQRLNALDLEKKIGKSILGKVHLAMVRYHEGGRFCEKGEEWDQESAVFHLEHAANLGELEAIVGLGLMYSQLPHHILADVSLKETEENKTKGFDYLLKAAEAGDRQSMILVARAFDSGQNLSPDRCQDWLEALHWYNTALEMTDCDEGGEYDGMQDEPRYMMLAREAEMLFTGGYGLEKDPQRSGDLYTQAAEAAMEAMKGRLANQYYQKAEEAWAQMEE
Description: as §1

RIPK2 = molecular target: T3, RIPK2 (Homo sapiens, UniProt O43353)
T3 construct: purchased ProQinase (Freiburg, Germany)
Description: as §1

CDK8/CycC = molecular target: T4, CDK8/CycC (Homo sapiens, UniProt P49336)
T4 construct: purchased ProQinase (Freiburg, Germany)
Description: as §1

JAK3 = molecular target: T5, JAK3 (Homo sapiens, UniProt P52333)
T5 construct: purchased ProQinase (Freiburg, Germany)
T5 sequence (P52333 1-1124): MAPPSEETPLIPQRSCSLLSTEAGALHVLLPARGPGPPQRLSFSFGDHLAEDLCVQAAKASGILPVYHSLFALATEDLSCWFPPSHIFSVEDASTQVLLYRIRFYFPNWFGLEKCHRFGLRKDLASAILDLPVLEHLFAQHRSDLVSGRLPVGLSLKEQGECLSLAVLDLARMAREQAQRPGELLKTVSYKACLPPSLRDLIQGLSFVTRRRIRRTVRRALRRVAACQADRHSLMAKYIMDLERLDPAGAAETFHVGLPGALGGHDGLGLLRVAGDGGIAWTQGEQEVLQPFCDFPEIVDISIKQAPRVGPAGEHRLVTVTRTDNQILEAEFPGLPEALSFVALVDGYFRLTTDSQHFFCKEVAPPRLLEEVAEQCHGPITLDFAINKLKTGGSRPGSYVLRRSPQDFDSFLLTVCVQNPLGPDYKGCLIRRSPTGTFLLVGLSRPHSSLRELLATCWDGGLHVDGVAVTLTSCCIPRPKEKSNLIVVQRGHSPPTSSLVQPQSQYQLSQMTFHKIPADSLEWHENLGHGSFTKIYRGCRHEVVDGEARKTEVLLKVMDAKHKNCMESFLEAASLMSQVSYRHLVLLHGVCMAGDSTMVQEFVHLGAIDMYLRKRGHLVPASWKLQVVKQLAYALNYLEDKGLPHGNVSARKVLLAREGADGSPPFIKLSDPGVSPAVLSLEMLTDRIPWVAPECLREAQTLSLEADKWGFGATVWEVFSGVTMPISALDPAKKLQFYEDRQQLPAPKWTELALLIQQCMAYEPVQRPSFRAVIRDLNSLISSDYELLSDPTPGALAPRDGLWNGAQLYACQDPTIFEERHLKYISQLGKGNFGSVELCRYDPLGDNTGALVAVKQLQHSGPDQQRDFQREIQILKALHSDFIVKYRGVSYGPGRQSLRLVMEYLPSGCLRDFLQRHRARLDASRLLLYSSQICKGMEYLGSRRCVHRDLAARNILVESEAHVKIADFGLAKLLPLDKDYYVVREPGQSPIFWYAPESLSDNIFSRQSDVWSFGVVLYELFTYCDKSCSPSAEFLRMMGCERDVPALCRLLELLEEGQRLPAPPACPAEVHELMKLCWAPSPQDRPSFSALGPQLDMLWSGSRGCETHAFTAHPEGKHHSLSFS
Description: as §1

T4 sequence (P49336 whole entry): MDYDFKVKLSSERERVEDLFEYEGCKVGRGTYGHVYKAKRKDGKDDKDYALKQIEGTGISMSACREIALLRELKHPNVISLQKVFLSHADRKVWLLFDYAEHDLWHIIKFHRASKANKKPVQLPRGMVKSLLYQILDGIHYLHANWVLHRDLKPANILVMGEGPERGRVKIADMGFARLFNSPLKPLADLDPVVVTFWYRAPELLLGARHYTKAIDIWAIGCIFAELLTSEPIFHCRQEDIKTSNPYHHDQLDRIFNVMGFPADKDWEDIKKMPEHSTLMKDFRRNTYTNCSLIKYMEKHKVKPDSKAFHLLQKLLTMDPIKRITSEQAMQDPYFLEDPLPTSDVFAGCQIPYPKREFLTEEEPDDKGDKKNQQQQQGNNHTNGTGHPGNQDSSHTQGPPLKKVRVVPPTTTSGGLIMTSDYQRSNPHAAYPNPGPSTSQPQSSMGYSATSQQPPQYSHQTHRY
T4 sequence (P24863 whole entry partner): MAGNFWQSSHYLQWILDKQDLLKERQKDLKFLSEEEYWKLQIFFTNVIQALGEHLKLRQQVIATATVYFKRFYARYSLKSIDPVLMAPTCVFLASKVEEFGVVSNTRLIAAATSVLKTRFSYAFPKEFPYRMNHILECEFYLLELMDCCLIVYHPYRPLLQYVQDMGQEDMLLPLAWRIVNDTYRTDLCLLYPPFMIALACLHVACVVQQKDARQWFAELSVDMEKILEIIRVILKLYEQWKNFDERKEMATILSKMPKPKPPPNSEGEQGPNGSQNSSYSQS
T3 sequence (O43353 whole entry): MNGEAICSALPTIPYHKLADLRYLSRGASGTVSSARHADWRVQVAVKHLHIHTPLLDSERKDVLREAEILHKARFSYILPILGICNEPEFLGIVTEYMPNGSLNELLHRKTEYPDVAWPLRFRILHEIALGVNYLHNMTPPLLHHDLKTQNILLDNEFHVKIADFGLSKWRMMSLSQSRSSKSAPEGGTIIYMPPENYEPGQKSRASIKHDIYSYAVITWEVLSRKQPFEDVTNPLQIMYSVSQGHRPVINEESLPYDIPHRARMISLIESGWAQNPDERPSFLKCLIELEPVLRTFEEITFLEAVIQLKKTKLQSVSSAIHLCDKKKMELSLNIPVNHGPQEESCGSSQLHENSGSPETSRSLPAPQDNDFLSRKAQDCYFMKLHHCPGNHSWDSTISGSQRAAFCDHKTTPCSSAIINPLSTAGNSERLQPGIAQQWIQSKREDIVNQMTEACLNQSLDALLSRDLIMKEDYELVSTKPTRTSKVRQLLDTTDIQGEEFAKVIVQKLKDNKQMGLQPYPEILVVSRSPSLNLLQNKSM
T1 sequence (P09769 whole entry): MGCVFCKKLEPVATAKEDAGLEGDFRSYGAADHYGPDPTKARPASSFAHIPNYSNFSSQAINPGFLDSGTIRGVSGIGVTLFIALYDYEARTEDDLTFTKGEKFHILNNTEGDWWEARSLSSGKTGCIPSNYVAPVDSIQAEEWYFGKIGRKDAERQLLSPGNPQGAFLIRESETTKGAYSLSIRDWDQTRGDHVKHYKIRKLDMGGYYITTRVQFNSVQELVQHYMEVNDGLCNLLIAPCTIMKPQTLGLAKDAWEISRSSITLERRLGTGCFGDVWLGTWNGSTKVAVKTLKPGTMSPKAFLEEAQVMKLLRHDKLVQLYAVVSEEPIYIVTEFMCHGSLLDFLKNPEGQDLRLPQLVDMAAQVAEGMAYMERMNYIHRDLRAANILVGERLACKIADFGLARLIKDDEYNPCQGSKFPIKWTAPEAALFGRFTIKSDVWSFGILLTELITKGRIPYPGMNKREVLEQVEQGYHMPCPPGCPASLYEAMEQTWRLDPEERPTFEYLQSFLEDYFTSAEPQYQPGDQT

Structure (SMILES) | Residual activity (FGR; 1.0E-05 M) | Residual activity (FGR; 1.0E-06 M) | Residual activity (EEF2K; 1.0E-05 M) | Residual activity (EEF2K; 1.0E-06 M) | Residual activity (RIPK2; 1.0E-05 M) | Residual activity (RIPK2; 1.0E-06 M) | Residual activity (CDK8/CycC; 1.0E-05 M) | Residual activity (CDK8/CycC; 1.0E-06 M) | Residual activity (JAK3; 1.0E-05 M) | Residual activity (JAK3; 1.0E-06 M)
O=C(Cc1ccccc1)Nc1ccc(F)c(Nc2ccc3c(c2)CCCCC3=O)c1 [Compound 100] | 82 % of control | 108 % of control | 89 % of control | 102 % of control | 89 % of control | 104 % of control | 60 % of control | 82 % of control | 75 % of control | 80 % of control
O=C(Nc1ccc(F)c(Nc2ccc3c(c2)CCCCC3=O)c1)c1cccc(F)c1 [Compound 109] | 84 % of control | 105 % of control | 94 % of control | 95 % of control | 84 % of control | 99 % of control | 61 % of control | 79 % of control | 79 % of control | 83 % of control
